{"source": "patent US20260224462A1", "about": "“ANTI-AGING COMPOSITION” (MITSUBISHI CORPORATION LIFE SCIENCES LIMITED, priority 2023, published 2026)", "type_in_all_cases": "cell-based", "key": {"Normal human fibroblasts [1]": {"test_system": "Normal human fibroblasts", "experiment": "Suppression of decrease in hyaluronic acid production capability due to aging induction, fibroblasts (ELISA)", "settings": "50 μM or 100 μM, 0.5 mM hydrogen peroxide; for amount of hyaluronic acid compared with test section of only aging induction: 24 h, ELISA, p<0.05, FIG. 3; for hyaluronic acid production capability compared with test sections that did not induce aging: no significant difference between the two groups, FIG. 3", "experimental": "Normal human fibroblasts were seeded in 24 well plates (8.0×10^4 cells/well, N=3) and precultured for 24 hours (5% CO2, 37° C.). As a medium, MEM-α, nucleosides medium (Gibco) containing fetal bovine serum (10% of serum-free medium was externally added) was used. Thereafter, the wells were washed once with PBS (−), then replaced with MEM-α, nucleoside medium containing fetal bovine serum (5% of serum-free medium was externally added) dissolved so that the final concentration of Sample 1 or Sample 2 was 50 μM or 100 μM, and further incubated for 30 minutes. Thereafter, fibroblasts were treated with a medium adjusted so that the final concentration of hydrogen peroxide was 0.5 mM to induce aging. Thereafter, the culture medium was changed to MEM-α, nucleoside medium containing fetal bovine serum (5% of serum-free culture medium was externally added) and incubated for 24 hours, and then the amount of hyaluronic acid was quantified by ELISA using a hyaluronic acid quantification kit (Cosmo Bio Inc.).\nThe hyaluronic acid production amount in each test section was shown as a relative value when the hyaluronic acid production amount in each sample and the test section in which aging induction was not performed was taken as 100. Regarding the hyaluronic acid production amount, a significant difference test (t-test, two-tailed) between the two groups of the test section for Sample 1 and the test section for which only the aging induction was performed respectively, and a significant difference test between the test section for Sample 2 and the test section for which only the aging induction was performed were each performed, and “*(p<0.05)” was marked for those in which a significant difference was recognized."}, "Normal human fibroblasts [2]": {"test_system": "Normal human fibroblasts", "experiment": "Suppression of decrease in proliferation capability of aging-induced normal human fibroblasts (MTT assay)", "settings": "50 μM or 100 μM, aging induced with 0.5 mM hydrogen peroxide; compared with only aging induction and with 100 μM reduced glutathione; p<0.005; FIG. 1", "experimental": "Normal human fibroblasts were seeded in 96 well plates (3.0×10^3 cells/well, N=3) and precultured for 24 hours (5% CO2, 37° C.). As a medium, MEM-α, nucleosides medium (Gibco) containing fetal bovine serum (10% of serum-free medium was externally added) was used. Thereafter, the wells were washed once with PBS (−), then replaced with MEM-α, nucleoside medium containing fetal bovine serum (5% of serum-free medium was externally added) dissolved so that the final concentration of Sample 1 or Sample 2 was 50 μM or 100 μM, and further incubated for 30 minutes. Thereafter, fibroblasts were treated with a medium adjusted so that the final concentration of hydrogen peroxide was 0.5 mM to induce aging. Thereafter, an MTT assay was performed according to a conventional method, and the survival rate of fibroblasts was calculated as a relative value when the survival rate of cells in the test section in which neither treatment nor aging induction was performed was taken as 100.\nFor comparison, a test section in which only aging induction was performed and a test section in which reduced glutathione was 100 μM was set instead of Sample 1. […]"}, "B16 mouse melanoma cells": {"test_system": "B16 mouse melanoma cells", "experiment": "Melanin production suppression test in cultured cells", "settings": "FIG. 5; for melanin production amount compared with the reference sample (absorbance at 405 nm): 0.02 mM or 0.05 mM at melanin induction with α-MSH 200 nM, p<0.01; for concentration needed for melanin production suppressing effect compared with kojic acid (1 mM) and reduced glutathione (3 mM): 0.02 mM or 0.05 mM of sample", "experimental": "B16 mouse melanoma cells were seeded in a 6 well plate (2.0×10^4 cells/well), and cultured for 24 hours in D-MEM medium to which 5% fetal bovine serum was added with respect to the medium (5% CO2, 37° C.). […] The obtained pellets were washed twice with PBS (−), 150 μL of a 1 M sodium hydroxide solution was then added, and the mixture was treated at 100° C. for 10 minutes to dissolve the pellets, thereby preparing a reference sample. […] One hundred μL of a sample of each test section was added to a 96 well plate, and the absorbance at 405 nm was measured with a microplate reader (n=3). […] The significant difference test was performed on the measured value of the reference sample by the Dunnett method (*p<0.05, **p<0.01.)."}, "[3]": {"test_system": "Normal human epidermal keratinocytes", "experiment": "Suppression of decrease in proliferation capability of aging-induced normal human epidermal keratinocytes (MTT assay)", "settings": "50 μM or 100 μM, aging induced with 0.5 mM hydrogen peroxide; compared with only aging induction; FIG. 2", "quoted_text": "Normal human epidermal keratinocytes were seeded in 96 well plates (1.0×10^4 cells/well, N=3) and precultured for 24 hours (5% CO2, 37° C.). As a medium, a commercially available keratinocyte growth medium (PromoCell) was used. Thereafter, the wells were washed once with PBS (−), then replaced with a keratinocyte growth medium dissolved so that the final concentration of Sample 1 was 50 μM or 100 μM, and further incubated for 30 minutes. […] Thereafter, an MTT assay was performed according to a conventional method, and the survival rate of normal human epidermal keratinocytes was calculated as a relative value when the survival rate of cells in a test section in which neither the treatment with oxidized glutathione trisulfide nor the aging induction was performed was taken as 100. For comparison, a test section in which only aging induction was performed without treatment with oxidized glutathione trisulfide was set. Regarding the survival rate, a significant difference test (t-test, two-tailed) between the two groups of the test section of Sample 1 and the test section in which only aging induction was performed was performed respectively."}, "[4]": {"test_system": "Normal human epidermal keratinocytes", "experiment": "Suppression of decrease in hyaluronic acid production capability due to aging induction, keratinocytes (ELISA)", "settings": "50 μM, 0.5 mM hydrogen peroxide", "experimental": "Normal human epidermal keratinocytes were seeded in 24 well plates (1.0×10^5 cells/well, N=3) and precultured for 24 hours (5% CO2, 37° C.). As a medium, a commercially available keratinocyte growth medium (PromoCell) was used. Thereafter, the wells were washed once with PBS (−), then replaced with a keratinocyte growth medium dissolved so that the final concentration of Sample 1 was 50 μM, and further incubated for 30 minutes. Thereafter, normal human epidermal keratinocytes were treated with a medium adjusted to have a final concentration of hydrogen peroxide of 0.5 mM to induce aging. Thereafter, the medium was replaced with a new keratinocyte growth medium and incubated for 24 hours, and then the amount of hyaluronic acid was quantified by an ELISA method using a hyaluronic acid quantification kit (Cosmo Bio). For comparison, a test section not treated with oxidized glutathione trisulfide was provided.\nThe hyaluronic acid production amount in each of the test sections was shown as a relative value when the hyaluronic acid production amount in the test section in which neither oxidized glutathione trisulfide treatment nor aging induction was performed was taken as 100. […]"}, "[5]": {"target": "T1, tyrosinase derived from B16 mouse melanoma cells (Mus musculus, UniProt P11344)", "T1 construct": "a protein extract containing tyrosinase derived from B16 mouse melanoma cells; endogenous in cells; host or cells: B16 mouse melanoma cells, alpha-MSH induced", "T1 sequence (P11344 19-533)": "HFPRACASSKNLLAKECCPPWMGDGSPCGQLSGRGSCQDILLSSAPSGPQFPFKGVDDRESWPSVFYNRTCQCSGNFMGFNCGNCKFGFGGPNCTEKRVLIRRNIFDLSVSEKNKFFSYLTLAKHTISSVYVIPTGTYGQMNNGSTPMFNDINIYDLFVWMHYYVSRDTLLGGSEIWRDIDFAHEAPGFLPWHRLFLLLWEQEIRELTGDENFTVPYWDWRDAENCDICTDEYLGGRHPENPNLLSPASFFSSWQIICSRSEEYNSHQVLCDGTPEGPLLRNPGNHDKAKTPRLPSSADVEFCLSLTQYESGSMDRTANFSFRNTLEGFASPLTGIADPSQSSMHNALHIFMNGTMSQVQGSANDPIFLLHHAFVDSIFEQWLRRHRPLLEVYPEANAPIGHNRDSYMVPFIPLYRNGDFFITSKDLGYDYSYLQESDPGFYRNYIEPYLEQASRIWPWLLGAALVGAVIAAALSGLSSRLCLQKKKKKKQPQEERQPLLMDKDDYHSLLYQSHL", "experiment": "Tyrosinase activity suppression test", "settings": "0.05 mM or 0.1 mM at melanin induction; L-DOPA, absorbance at 490 nm corrected by protein concentration; FIG. 6", "quoted_text": "The tyrosinase activity inhibitory effect can be known by comparing the value of the absorbance at 490 nm corrected by the protein concentration measured by adding the test substance at the time of melanin induction and the same operation with the value of the test section to which the test substance is not added.\nB16 mouse melanoma cells were seeded in a 6 well plate (2.0×10^4 cells/well), and cultured for 24 hours in D-MEM medium to which 5% fetal bovine serum was added with respect to the medium (5% CO2, 37° C.). Thereafter, α-MSH (final concentration: 200 nM) was added, and the cells were cultured in a serum-free D-MEM medium for 24 hours to induce melanin. […] The protein concentration of the obtained sample was measured by the BCA method.\nThe same operation was performed except that melanin induction was not performed, and a reference sample was obtained. […] Fifty μL of a sample of each test section was placed in a 96 well plate (n=3), 50 μL of 0.8 mg/mL L-DOPA was added, the mixture was reacted at 37° C. for 1 hour, and then the absorbance at 490 nm was measured with a microplate reader. The absorbance was corrected by the protein concentration, and the relative value of each test section was calculated when the measured value of the reference sample was 100. […]"}}}
{"smiles": "CC(=O)N[C@@H](CSSSC[C@H](NC(C)=O)C(=O)O)C(=O)O", "note": "[Sample 2, oxidized NAC trisulfide]", "values": [{"measurement": "amount of hyaluronic acid compared with test section of only aging induction", "setting": "Normal human fibroblasts [1]", "value": "significantly higher"}, {"measurement": "hyaluronic acid production capability compared with test sections that did not induce aging", "setting": "Normal human fibroblasts [1]", "value": "The same result was obtained"}, {"measurement": "cell proliferation rate (survival rate of fibroblasts, MTT, relative value)", "setting": "Normal human fibroblasts [2]", "value": "significant cell proliferation rate"}, {"measurement": "melanin production amount compared with the reference sample (absorbance at 405 nm)", "setting": "B16 mouse melanoma cells", "value": "significantly low"}, {"measurement": "concentration needed for melanin production suppressing effect compared with kojic acid (1 mM) and reduced glutathione (3 mM)", "setting": "B16 mouse melanoma cells; α-MSH 200 nM", "value": "melanin production can be suppressed at a lower concentration"}]}
{"smiles": "N[C@@H](CCC(=O)N[C@@H](CSSSC[C@H](NC(=O)CC[C@H](N)C(=O)O)C(=O)NCC(=O)O)C(=O)NCC(=O)O)C(=O)O", "note": "[Sample 1, oxidized glutathione trisulfide]", "values": [{"measurement": "cell proliferation rate (survival rate of keratinocytes, MTT, relative value)", "setting": "[3]", "value": "significant cell proliferation rate"}, {"measurement": "amount of hyaluronic acid compared with test section of only aging induction", "setting": "Normal human fibroblasts [1]", "value": "significantly higher"}, {"measurement": "hyaluronic acid production capability compared with test sections that did not induce aging", "setting": "Normal human fibroblasts [1]", "value": "same hyaluronic acid production capability"}, {"measurement": "cell proliferation rate (survival rate of fibroblasts, MTT, relative value)", "setting": "Normal human fibroblasts [2]", "value": "significant cell proliferation rate"}, {"measurement": "melanin production amount compared with the reference sample (absorbance at 405 nm)", "setting": "B16 mouse melanoma cells", "value": "significantly low"}, {"measurement": "concentration needed for melanin production suppressing effect compared with kojic acid (1 mM) and reduced glutathione (3 mM)", "setting": "B16 mouse melanoma cells; α-MSH 200 nM", "value": "exhibited a melanin production suppressing effect at a lower concentration"}, {"measurement": "amount of hyaluronic acid compared with test section of only aging induction", "setting": "[4]; 24 h, ELISA, p<0.05, FIG. 4", "value": "significantly higher"}, {"measurement": "hyaluronic acid production capability compared with control group in which aging is not induced", "setting": "[4]; no significant difference between the two groups, FIG. 4", "value": "same hyaluronic acid production capability"}, {"measurement": "tyrosinase activity compared with test section in which only melanin induction was performed", "setting": "[5]", "value": "significantly lower"}, {"measurement": "tyrosinase activity compared with the reference sample (no melanin induction)", "setting": "[5]", "value": "same degree of tyrosinase activity as the reference sample"}]}
{"smiles": "N[C@@H](CCC(=O)N[C@@H](CS)C(=O)NCC(=O)O)C(=O)O", "note": "[reduced glutathione, reference compound]", "values": [{"measurement": "melanin production suppressing effect compared with 0.02 mM test section of Sample 1", "setting": "B16 mouse melanoma cells; reduced glutathione final concentration 3 mM, α-MSH 200 nM", "value": "same melanin production suppressing effect"}]}
